This is an account of results in patent publication US4634783A, “Novel amidine compound” (Torii & Co. Ltd., priority 1983, dated 1987).

For one assay, the target named is T1, C1r (Homo sapiens, UniProt P00736).
T1 sequence (P00736 464-705 limits assumed): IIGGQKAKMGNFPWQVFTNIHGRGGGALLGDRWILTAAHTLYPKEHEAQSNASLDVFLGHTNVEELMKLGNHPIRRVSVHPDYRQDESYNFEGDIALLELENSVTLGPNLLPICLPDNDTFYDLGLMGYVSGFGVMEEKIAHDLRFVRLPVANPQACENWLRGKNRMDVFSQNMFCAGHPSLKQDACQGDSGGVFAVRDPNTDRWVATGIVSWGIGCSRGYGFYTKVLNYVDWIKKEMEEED
T1 sequence (P00736 18-463 limits assumed): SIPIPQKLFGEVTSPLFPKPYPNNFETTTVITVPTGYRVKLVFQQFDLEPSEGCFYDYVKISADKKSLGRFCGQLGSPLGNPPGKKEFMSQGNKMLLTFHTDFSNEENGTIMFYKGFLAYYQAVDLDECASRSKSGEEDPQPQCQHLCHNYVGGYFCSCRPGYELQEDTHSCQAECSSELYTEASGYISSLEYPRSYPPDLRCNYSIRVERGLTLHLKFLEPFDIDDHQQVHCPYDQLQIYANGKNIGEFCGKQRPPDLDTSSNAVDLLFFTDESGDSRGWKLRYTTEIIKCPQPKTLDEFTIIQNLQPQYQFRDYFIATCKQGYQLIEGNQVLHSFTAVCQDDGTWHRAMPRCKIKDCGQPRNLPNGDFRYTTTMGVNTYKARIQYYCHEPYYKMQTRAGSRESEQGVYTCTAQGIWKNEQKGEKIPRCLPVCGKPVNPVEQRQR
In words: anti-C1 esterase (C1r) activity (hydrolysis of AAME). Format: biochemical. The conditions noted are these: for IC50: AAME hydrolysis, read-out: ID50 C1r; for inhibition at 10 µM: at 1×10^-5 M, figure in parentheses, read-out: percent inhibition C1r. The method, then:
(§1) The anti-C1 esterase (C1r, C1s) activity was determined according to the method of Okamura et al. [K. Okamura, M. Muramatsu and B. Fujii, Biochem. Biophys. Acta, 295, 252-257 (1973)]. The inhibition of complement mediated hemolysis was determined according to the method of Baker et al. [B. R. Baker and E. H. Erickson, J. Med. Chem., 12, 408-414 (1969)]. The figures in Table 2 have the following meanings:
C1r: Molar concentration of the test compound which inhibits 50% of the ability of C1r to hydrolyse AAME (acetylarginin methyl ester) (ID50).

In assay [1] the test system is complement mediated hemolysis. As to the kind of experiment: inhibition of complement mediated hemolysis. Format: cell-based. The method, then: The complement mediated hemolysis is widely used as a means to determine the titration of complement. The principle of this method is based on the fact that hemolysis is caused by the activation of complement, when the latter is added to a complex (immune complex) of erythrocytes and the antibody thereof. The degree of hemolysis varies in proportion to the amount of complement added. Therefore, when a known amount of complement admixed with a C1 esterase inhibitor is used, the hemolysis must be suppressed in proportion to the inhibitory activity.
as §1
Inhibition of complement mediated hemolysis (%): The inhibitory activity is shown in terms of percent inhibition of the compound at varied concentrations: […]

A further assay deals with Plasmin (Homo sapiens, UniProt P00747). In words: anti-plasmin activity (hydrolysis of TAME). Format: biochemical. As to conditions: for IC50: TAME hydrolysis, read-out: ID50 Plasmin; for inhibition at 10 µM: at 1×10^-5 M, figure in parentheses, read-out: percentage inhibition Plasmin. The method, then: (§2) The anti-trypsin, anti-plasmin, anti-kallikrein and anti-thrombin activities were determined according to the method of Muramatsu et al. [M. Muramatsu, T. Onishi, S. Makino, Y. Hayashi and S. Fujii, J. of Biochem., 58, 214 (1965)]. […] The compound No. corresponds to the compound number shown in Examples.

The target in a further assay is T2, C1s (Homo sapiens, UniProt P09871).
T2 sequence (P09871 438-688 limits assumed): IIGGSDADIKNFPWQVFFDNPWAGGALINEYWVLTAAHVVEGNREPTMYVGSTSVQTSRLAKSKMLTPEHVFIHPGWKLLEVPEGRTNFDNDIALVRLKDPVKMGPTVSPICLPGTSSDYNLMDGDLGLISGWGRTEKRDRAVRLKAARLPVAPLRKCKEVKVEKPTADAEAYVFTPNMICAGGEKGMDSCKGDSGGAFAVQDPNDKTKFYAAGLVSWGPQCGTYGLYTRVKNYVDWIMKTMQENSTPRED
T2 sequence (P09871 16-437 limits assumed): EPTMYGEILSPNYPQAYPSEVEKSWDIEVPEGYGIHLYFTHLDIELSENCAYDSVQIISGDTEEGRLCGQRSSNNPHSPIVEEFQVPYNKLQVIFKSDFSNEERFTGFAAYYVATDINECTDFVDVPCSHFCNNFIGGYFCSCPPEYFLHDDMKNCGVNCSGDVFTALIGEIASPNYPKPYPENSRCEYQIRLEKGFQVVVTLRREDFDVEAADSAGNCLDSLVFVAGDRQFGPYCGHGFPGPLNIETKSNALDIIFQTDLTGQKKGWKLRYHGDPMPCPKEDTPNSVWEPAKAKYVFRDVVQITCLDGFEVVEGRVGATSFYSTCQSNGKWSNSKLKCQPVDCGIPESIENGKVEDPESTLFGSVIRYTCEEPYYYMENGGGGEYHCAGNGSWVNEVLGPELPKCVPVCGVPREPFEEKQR
As to the kind of experiment: anti-C1 esterase (C1s) activity (hydrolysis of ATEE). Format: biochemical. As to conditions: for IC50: ATEE hydrolysis, read-out: ID50 C1s; for inhibition at 10 µM: at 1×10^-5 M, figure in parentheses, read-out: percent inhibition C1s. The method, then: as §1
C1s: Molar concentration of the test compound which inhibits 50% of the ability of C1s to hydrolyse ATEE (acetyltyrosin ethyl ester) (ID50).

A further assay deals with T3, Trypsin (Bos taurus, UniProt P00760).
T3 sequence (P00760 24-246): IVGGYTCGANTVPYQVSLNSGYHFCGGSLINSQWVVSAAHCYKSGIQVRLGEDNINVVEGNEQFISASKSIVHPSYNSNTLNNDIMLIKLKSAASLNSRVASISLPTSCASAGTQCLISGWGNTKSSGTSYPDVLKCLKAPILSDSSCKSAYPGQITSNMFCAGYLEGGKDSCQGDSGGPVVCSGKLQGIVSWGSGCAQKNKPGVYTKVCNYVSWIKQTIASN
As to the kind of experiment: anti-trypsin activity (hydrolysis of TAME). As to conditions: read-out: ID50 Trypsin. Format: biochemical. The method, then: as §2

For another assay, the system named is Kallikrein. As to the kind of experiment: anti-kallikrein activity (hydrolysis of TAME). Format: biochemical. As to conditions: for IC50: TAME hydrolysis, read-out: ID50 Kallikrein; for percentage inhibition Kallikrein: at 1×10^-5 M, figure in parentheses. The method, then: as §2
In the next assay the target is Thrombin (Homo sapiens, UniProt P00734). In words: biochemical. As to conditions: for IC50: read-out: ID50 Thrombin; for inhibition at 10 µM: at 1×10^-5 M, figure in parentheses, read-out: percentage inhibition Thrombin.

Read-outs that look alike come from different tables or passages of the source.

Chain of Plasmin (P00747 581-810 limits assumed, species assumed): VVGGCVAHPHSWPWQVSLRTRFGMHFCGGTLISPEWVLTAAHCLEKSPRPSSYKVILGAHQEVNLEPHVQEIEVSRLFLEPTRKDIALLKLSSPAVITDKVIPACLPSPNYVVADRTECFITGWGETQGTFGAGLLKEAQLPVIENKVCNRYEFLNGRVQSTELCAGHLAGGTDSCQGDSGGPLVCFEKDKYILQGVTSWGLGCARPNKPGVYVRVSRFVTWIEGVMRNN
Chain of Plasmin (P00747 97-580 limits assumed, species assumed): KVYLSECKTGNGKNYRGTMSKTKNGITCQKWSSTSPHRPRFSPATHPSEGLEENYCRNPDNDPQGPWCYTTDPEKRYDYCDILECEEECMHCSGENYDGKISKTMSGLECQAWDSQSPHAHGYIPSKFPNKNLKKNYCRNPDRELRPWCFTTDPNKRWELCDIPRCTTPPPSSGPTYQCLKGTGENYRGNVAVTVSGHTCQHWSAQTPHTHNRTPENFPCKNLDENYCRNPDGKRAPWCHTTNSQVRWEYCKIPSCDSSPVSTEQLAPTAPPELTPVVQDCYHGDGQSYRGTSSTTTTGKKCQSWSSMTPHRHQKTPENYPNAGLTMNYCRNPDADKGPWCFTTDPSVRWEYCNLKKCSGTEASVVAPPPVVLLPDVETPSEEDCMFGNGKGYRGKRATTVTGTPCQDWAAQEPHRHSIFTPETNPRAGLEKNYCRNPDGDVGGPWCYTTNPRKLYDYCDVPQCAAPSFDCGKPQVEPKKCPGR

Take `N=C(N)Nc1ccc(CCc2ccc(C(=O)Oc3ccc4cc(C(=N)N)ccc4c3)o2)cc1` [compound 2, 6-amidino-2-naphthyl 5-(p-guanidinophenylethyl)-furan-2-carboxylate]: the IC50 at C1r came out at 0.2 µM; on Plasmin, 0.4 µM; at C1s, 0.4 µM; on Trypsin it was 0.2 µM; in the assay on Kallikrein, 0.3 µM; at Thrombin (TAME hydrolysis), 0.5 µM. In addition, the “Inhibition of complement mediated hemolysis” value stood at 100% in assay [1] (1 × 10^-4), 100% in assay [1] (1 × 10^-5), 97% in assay [1] (1 × 10^-6) and 89% in assay [1] (1 × 10^-7).
On to `N=C(N)c1ccc2cc(OC(=O)c3ccco3)ccc2c1` [compound 3], for which the IC50 on C1r was determined as 0.5 µM; at Plasmin, 1 µM; on C1s it was 4 µM; on Trypsin, 0.4 µM; on Thrombin (TAME hydrolysis), 0.4 µM. Also, the “Inhibition of complement mediated hemolysis” value in assay [1] (1 × 10^-4), in assay [1] (1 × 10^-5), in assay [1] (1 × 10^-6) and in assay [1] (1 × 10^-7) was 100% throughout. In the assay on Kallikrein, the “percentage inhibition Kallikrein” value is listed as “NE (the percentage inhibition is less than 10%)”.
As to `N=C(N)c1ccc2cc(OC(=O)c3ccoc3)ccc2c1` [compound 4], the IC50 on C1r worked out at 0.6 µM; on Plasmin, 1 µM; on C1s it was 0.3 µM; at Trypsin, 2 µM; on Thrombin (TAME hydrolysis), 0.7 µM. The “Inhibition of complement mediated hemolysis” value in assay [1] (1 × 10^-4) is 100%; in assay [1] (1 × 10^-5), 65%; in assay [1] (1 × 10^-6) it was 30%; in assay [1] (1 × 10^-7), “NE (the percentage inhibition is less than 10%)”. The “percentage inhibition Kallikrein” value in the assay on Kallikrein was 43%.
With `N=C(N)c1ccc2cc(OC(=O)c3ccc(CO)o3)ccc2c1` [compound 8], the “Inhibition of complement mediated hemolysis” value came out at 100% in assay [1] (1 × 10^-4), 100% in assay [1] (1 × 10^-5), 97% in assay [1] (1 × 10^-6) and 92% in assay [1] (1 × 10^-7). Besides, the IC50 at Plasmin stood at 2 µM; at C1s it was 4 µM; at Trypsin, 0.4 µM; in the assay with Kallikrein, 4 µM; on Thrombin (TAME hydrolysis), 0.6 µM.
Take `COc1ccc2[nH]c(C(=O)Oc3ccc4cc(C(=N)N)ccc4c3)cc2c1` [compound 33]: the IC50 on C1r worked out at 2 µM; on Plasmin, 2 µM; on C1s, 2 µM; at Trypsin, 0.2 µM; with Kallikrein it was 10 µM. Also, the inhibition at 10 µM on Thrombin was found to be 40%.
For `COc1ccc2c(c1)c(CC(=O)Oc1ccc3cc(C(=N)N)ccc3c1)c(C)n2C(=O)c1ccc(Cl)cc1` [compound 35], the IC50 on C1r came out at 0.4 µM; on Plasmin it was 0.1 µM; at C1s, 0.8 µM; on Trypsin it was 0.001 µM; in the assay with Kallikrein, 10 µM; at Thrombin (TAME hydrolysis) it was 0.09 µM.
For `N=C(N)c1ccc2cc(OC(=O)C=Cc3c[nH]c4ccccc34)ccc2c1` [compound 38], the inhibition at 10 µM at C1r turned out to be 42%; at Thrombin, 11%. Further, the IC50 at Plasmin amounted to 0.8 µM; at C1s it was 0.6 µM; at Trypsin it was 9 µM. Further, in the assay with Kallikrein, the “percentage inhibition Kallikrein” value is 17%.
Regarding `N=C(N)c1ccc2cc(OC(=O)c3ccc(Cn4ccnc4)cc3)ccc2c1` [compound 42], the results for the IC50 on Plasmin, at Trypsin and with Kallikrein were 2 µM, 2 µM and 5 µM, respectively. For the same compound, on Thrombin, the inhibition at 10 µM worked out at 13%.
Regarding `N=C(N)c1ccc2cc(OC(=O)c3ccc4[nH]cnc4c3)ccc2c1` [compound 43], the values for the IC50 on C1r, on C1s and at Trypsin were 0.3 µM, 0.5 µM and 0.1 µM, respectively. For the same compound, the values for the inhibition at 10 µM at Plasmin and on Thrombin were 31% and 46%, respectively. The “percentage inhibition Kallikrein” value in the assay on Kallikrein was determined as 41%.
Consider `N=C(N)c1ccc2cc(OC(=O)C=Cc3cccnc3)ccc2c1` [compound 50], for which the IC50 at C1r came to 5 µM; on Plasmin, 4 µM; on Trypsin, 6 µM. Besides, the inhibition at 10 µM came to 18% on C1s and 14% on Thrombin. Also, in the assay with Kallikrein, the “percentage inhibition Kallikrein” value is given as “NE (the percentage inhibition is less than 10%)”.
For `N=C(N)c1ccc2cc(OC(=O)c3ccc4ccccc4n3)ccc2c1` [compound 52], the figures for the inhibition at 10 µM on C1r and at C1s were 29% and less than 10%, respectively. For the same compound, the “Inhibition of complement mediated hemolysis” value is given as 100% in assay [1] (1 × 10^-4), 97% in assay [1] (1 × 10^-5), 99% in assay [1] (1 × 10^-6) and 97% in assay [1] (1 × 10^-7).
As to `N=C(N)c1ccc2cc(OC(=O)C3CCN(C(=O)OCc4ccccc4)CC3)ccc2c1` [compound 55], the IC50 turned out to be 3 µM on C1r; 3 µM at Plasmin; 0.4 µM at C1s; 0.06 µM on Trypsin; 2 µM in the assay on Kallikrein. Moreover, the inhibition at 10 µM at Thrombin amounted to 41%.
On to `CN1c2ccccc2Sc2ccc(CC(=O)Oc3ccc4cc(C(=N)N)ccc4c3)cc21` [compound 61], for which the IC50 at C1r came to 2 µM; at Trypsin it was 3 µM; at Thrombin, 3 µM. Also, the inhibition at 10 µM turned out to be 31% on Plasmin and 16% at C1s. Besides, in the assay on Kallikrein, the “percentage inhibition Kallikrein” value stood at 17%.
As to `N=C(N)c1ccc2cc(OC(=O)C3CCNCC3)ccc2c1` [compound 64], the inhibition at 10 µM at C1r was 45%. In addition, the IC50 on C1s was 7 µM.

The term inhibition denotes the relative decrease from the control value, in per cent.
